From ChEMBL document CHEMBL4616723, “Discovery of Antibacterials That Inhibit Bacterial RNA Polymerase Interactions with Sigma Factors” (J Med Chem, 2020)
Values after ≈ are worked out from the molar mass of the structure shown.

Assays:
Format in all cases: functional
Enterobacter cloacae = test: Antibacterial activity against Enterobacter cloacae ATCC 13047 after 20 hrs by CLSI based-broth microdilution method; settings: subsp. cloacae ATCC 13047, 20 h
Klebsiella pneumoniae = test: Antibacterial activity against Klebsiella pneumoniae ATCC 700603 after 20 hrs by CLSI based-broth microdilution method; settings: ATCC 700603, 20 h
Pseudomonas aeruginosa = test: Antibacterial activity against Pseudomonas aeruginosa ATCC 27853 after 20 hrs by CLSI based-broth microdilution method; settings: ATCC 27853, 20 h
Escherichia coli = test: Antibacterial activity against Escherichia coli ATCC 25922 after 20 hrs by CLSI based-broth microdilution method; settings: ATCC 25922, 20 h
Acinetobacter baumannii = test: Antibacterial activity against Acinetobacter baumannii ATCC 19606 after 20 hrs by CLSI based-broth microdilution method; settings: ATCC 19606 = CIP 70.34 = JCM 6841, 20 h
Streptococcus pneumoniae = test: Antibacterial activity against Streptococcus pneumoniae ATCC 49619 after 20 hrs by CLSI based-broth microdilution method; settings: ATCC 49619, 20 h

SMILES	MIC (Enterobacter cloacae)	MIC (Klebsiella pneumoniae)	MIC (Pseudomonas aeruginosa)	MIC (Escherichia coli)	MIC (Acinetobacter baumannii)	MIC (Streptococcus pneumoniae)
O=C(O)c1ccccc1C(=O)c1ccc(Nc2cccc(CO)c2)c([N+](=O)[O-])c1	> 256 µg/mL	> 256 µg/mL	> 256 µg/mL	> 256 µg/mL	> 256 µg/mL	> 256 µg/mL
COc1ccc(Nc2ccc(C(=O)c3ccccc3C(=O)O)cc2[N+](=O)[O-])cc1	> 256 µg/mL	> 256 µg/mL	> 256 µg/mL	> 256 µg/mL	> 256 µg/mL	> 256 µg/mL
O=C(O)c1ccccc1C(=O)c1ccc(Nc2ccccc2)c([N+](=O)[O-])c1	> 256 µg/mL	> 256 µg/mL	> 256 µg/mL	> 256 µg/mL	> 256 µg/mL	256 µg/mL (≈ 707 µM)
Nc1ccccc1Sc1ccc(C(=O)Nc2cccc(C(=O)O)c2)cc1[N+](=O)[O-]	> 256 µg/mL	> 256 µg/mL	> 256 µg/mL	> 256 µg/mL	> 256 µg/mL	128 µg/mL (≈ 313 µM)
Cc1cccc(Nc2ccc(C(=O)c3ccccc3C(=O)O)cc2[N+](=O)[O-])c1	> 256 µg/mL	> 256 µg/mL	> 256 µg/mL	> 256 µg/mL	> 256 µg/mL	128 µg/mL (≈ 340 µM)
O=C(O)c1cc(NCc2ccc(Sc3ccc(Cl)c(Cl)c3)c([N+](=O)[O-])c2)ccc1Cl	> 256 µg/mL	> 256 µg/mL	> 256 µg/mL	> 256 µg/mL	> 256 µg/mL	256 µg/mL (≈ 529 µM)
NC(=O)c1cccc(NCc2ccc(Sc3ccc(Cl)c(Cl)c3)c([N+](=O)[O-])c2)c1	> 256 µg/mL	> 256 µg/mL	> 256 µg/mL	> 256 µg/mL	> 256 µg/mL	> 256 µg/mL
Nc1ccccc1Sc1ccc(CNc2cccc(C(=O)O)c2)cc1[N+](=O)[O-]	> 256 µg/mL	> 256 µg/mL	> 256 µg/mL	> 256 µg/mL	> 256 µg/mL	64 µg/mL (≈ 162 µM)
O=[N+]([O-])c1cc(CNc2cccc(CO)c2)ccc1Sc1ccc(Cl)c(Cl)c1	> 256 µg/mL	> 256 µg/mL	> 256 µg/mL	> 256 µg/mL	> 256 µg/mL	> 256 µg/mL
Nc1ccccc1Sc1ccc(CNc2ccccc2C(=O)O)cc1[N+](=O)[O-]	> 256 µg/mL	> 256 µg/mL	> 256 µg/mL	> 256 µg/mL	> 256 µg/mL	64 µg/mL (≈ 162 µM)
O=C(Nc1ccccc1C(=O)O)c1ccc(Sc2ccc(Cl)c(Cl)c2)c([N+](=O)[O-])c1	> 256 µg/mL	> 256 µg/mL	> 256 µg/mL	> 256 µg/mL	> 256 µg/mL	> 256 µg/mL
Nc1ccccc1Nc1ccc(C(=O)c2ccccc2C(=O)O)cc1[N+](=O)[O-]	> 256 µg/mL	> 256 µg/mL	> 256 µg/mL	> 256 µg/mL	> 256 µg/mL	> 256 µg/mL
O=C(O)c1ccccc1C(=O)c1ccc(N2CCCCC2)c([N+](=O)[O-])c1	> 256 µg/mL	> 256 µg/mL	> 256 µg/mL	> 256 µg/mL	> 256 µg/mL	256 µg/mL (≈ 722 µM)
O=C(O)c1cccc(NC(=O)c2ccc(Sc3ccc(Cl)c(Cl)c3)c([N+](=O)[O-])c2)c1	> 256 µg/mL	> 256 µg/mL	> 256 µg/mL	> 256 µg/mL	> 256 µg/mL	256 µg/mL (≈ 553 µM)
CC(=O)Nc1cccc(Sc2ccc(C(=O)c3ccccc3C(=O)O)cc2[N+](=O)[O-])c1	> 256 µg/mL	> 256 µg/mL	> 256 µg/mL	> 256 µg/mL	> 256 µg/mL	256 µg/mL (≈ 587 µM)
O=C(O)c1ccc(F)c(NCc2ccc(Sc3ccc(Cl)c(Cl)c3)c([N+](=O)[O-])c2)c1	> 256 µg/mL	> 256 µg/mL	> 256 µg/mL	> 256 µg/mL	> 256 µg/mL	> 256 µg/mL
N#Cc1ccccc1NCc1ccc(Sc2ccc(Cl)c(Cl)c2)c([N+](=O)[O-])c1	> 256 µg/mL	> 256 µg/mL	> 256 µg/mL	> 256 µg/mL	> 256 µg/mL	> 256 µg/mL
O=C(O)c1ccccc1C(=O)c1ccc(Nc2cccc(Cl)c2)c([N+](=O)[O-])c1	> 256 µg/mL	> 256 µg/mL	> 256 µg/mL	> 256 µg/mL	> 256 µg/mL	256 µg/mL (≈ 645 µM)
Cc1cccc([N+](=O)[O-])c1Sc1ccc(C(=O)c2ccccc2C(=O)O)cc1[N+](=O)[O-]	> 256 µg/mL	> 256 µg/mL	> 256 µg/mL	> 256 µg/mL	> 256 µg/mL	128 µg/mL (≈ 292 µM)
Nc1ccccc1Sc1ccc(C(=O)Nc2ccccc2C(=O)O)cc1[N+](=O)[O-]	> 256 µg/mL	> 256 µg/mL	> 256 µg/mL	> 256 µg/mL	> 256 µg/mL	64 µg/mL (≈ 156 µM)
O=C(O)c1ccccc1C(=O)c1ccc(Nc2nccs2)c([N+](=O)[O-])c1	> 256 µg/mL	> 256 µg/mL	> 256 µg/mL	> 256 µg/mL	> 256 µg/mL	> 256 µg/mL

SMILES	MIC (Enterobacter cloacae)	MIC (Klebsiella pneumoniae)	MIC (Pseudomonas aeruginosa)	MIC (Escherichia coli)	MIC (Acinetobacter baumannii)	MIC (Streptococcus pneumoniae)
NC(=O)c1cccc(Nc2ccc(C(=O)c3ccccc3C(=O)O)cc2[N+](=O)[O-])c1	> 256 µg/mL	> 256 µg/mL	> 256 µg/mL	> 256 µg/mL	> 256 µg/mL	> 256 µg/mL
Cc1occc1Sc1ccc(C(=O)c2ccccc2C(=O)O)cc1[N+](=O)[O-]	> 256 µg/mL	> 256 µg/mL	> 256 µg/mL	> 256 µg/mL	> 256 µg/mL	256 µg/mL (≈ 668 µM)
Nc1cc(C(=O)c2ccccc2C(=O)O)ccc1Sc1ccc(Cl)c(Cl)c1	> 256 µg/mL	> 256 µg/mL	> 256 µg/mL	> 256 µg/mL	> 256 µg/mL	32 µg/mL (≈ 76.5 µM)
COc1ccccc1Sc1ccc(C(=O)c2ccccc2C(=O)O)cc1[N+](=O)[O-]	> 256 µg/mL	> 256 µg/mL	> 256 µg/mL	> 256 µg/mL	> 256 µg/mL	128 µg/mL (≈ 313 µM)
O=C(O)c1ccccc1C(=O)c1ccc(Sc2ccc(Cl)cc2Cl)c([N+](=O)[O-])c1	> 256 µg/mL	> 256 µg/mL	> 256 µg/mL	> 256 µg/mL	> 256 µg/mL	32 µg/mL (≈ 71.4 µM)
O=C(O)c1ccccc1C(=O)c1ccc(Sc2ccccn2)c([N+](=O)[O-])c1	> 256 µg/mL	> 256 µg/mL	> 256 µg/mL	> 256 µg/mL	> 256 µg/mL	> 256 µg/mL
NC1CCCCC1Nc1ccc(C(=O)c2ccccc2C(=O)O)cc1[N+](=O)[O-] (configuration not stated)	> 256 µg/mL	> 256 µg/mL	> 256 µg/mL	> 256 µg/mL	> 256 µg/mL	> 256 µg/mL
O=C(O)c1ccccc1C(=O)c1ccc(N2CCOCC2)c([N+](=O)[O-])c1	> 256 µg/mL	> 256 µg/mL	> 256 µg/mL	> 256 µg/mL	> 256 µg/mL	> 256 µg/mL
O=C(O)c1ccccc1C(=O)c1ccc(Nc2ccc(Cl)c(Cl)c2)c([N+](=O)[O-])c1	> 256 µg/mL	> 256 µg/mL	> 256 µg/mL	> 256 µg/mL	> 256 µg/mL	64 µg/mL (≈ 148 µM)
O=C(O)c1ccccc1C(=O)c1ccc(Sc2ccccc2F)c([N+](=O)[O-])c1	> 256 µg/mL	> 256 µg/mL	> 256 µg/mL	> 256 µg/mL	> 256 µg/mL	128 µg/mL (≈ 322 µM)
Nc1ccccc1Sc1ccc(CNc2ccc(C(=O)O)cc2)cc1[N+](=O)[O-]	> 256 µg/mL	> 256 µg/mL	> 256 µg/mL	> 256 µg/mL	> 256 µg/mL	256 µg/mL (≈ 647 µM)
Cc1ccc(Sc2ccc(C(=O)c3ccccc3C(=O)O)cc2[N+](=O)[O-])c(C)c1	> 256 µg/mL	> 256 µg/mL	> 256 µg/mL	> 256 µg/mL	> 256 µg/mL	32 µg/mL (≈ 78.5 µM)
NS(=O)(=O)c1cccc(NCc2ccc(Sc3ccc(Cl)c(Cl)c3)c([N+](=O)[O-])c2)c1	> 256 µg/mL	> 256 µg/mL	> 256 µg/mL	> 256 µg/mL	> 256 µg/mL	64 µg/mL (≈ 132 µM)
O=C(Nc1cccc(Sc2ccc(C(=O)c3ccccc3C(=O)O)cc2[N+](=O)[O-])c1)c1ccccc1	> 256 µg/mL	> 256 µg/mL	> 256 µg/mL	> 256 µg/mL	> 256 µg/mL	32 µg/mL (≈ 64.2 µM)
Cc1ccc(C(=O)O)cc1NCc1ccc(Sc2ccc(Cl)c(Cl)c2)c([N+](=O)[O-])c1	> 256 µg/mL	> 256 µg/mL	> 256 µg/mL	> 256 µg/mL	> 256 µg/mL	16 µg/mL (≈ 34.5 µM)
CCN(CC)C(=O)c1ccc(Sc2ccc(C(=O)c3ccccc3C(=O)O)cc2[N+](=O)[O-])c([N+](=O)[O-])c1	> 256 µg/mL	> 256 µg/mL	> 256 µg/mL	> 256 µg/mL	> 256 µg/mL	256 µg/mL (≈ 489 µM)
NC(=O)c1ccccc1NCc1ccc(Sc2ccc(Cl)c(Cl)c2)c([N+](=O)[O-])c1	> 256 µg/mL	> 256 µg/mL	> 256 µg/mL	> 256 µg/mL	> 256 µg/mL	> 256 µg/mL
O=C(O)c1ccccc1C(=O)c1ccc(Nc2cccc3cccnc23)c([N+](=O)[O-])c1	> 256 µg/mL	> 256 µg/mL	> 256 µg/mL	> 256 µg/mL	> 256 µg/mL	> 256 µg/mL
CC(C)Nc1cccc(Sc2ccc(C(=O)c3ccccc3C(=O)O)cc2[N+](=O)[O-])c1	> 256 µg/mL	> 256 µg/mL	> 256 µg/mL	> 256 µg/mL	> 256 µg/mL	32 µg/mL (≈ 73.3 µM)
O=C(O)c1ccccc1C(=O)c1ccc(NCc2ccccc2F)c([N+](=O)[O-])c1	> 256 µg/mL	> 256 µg/mL	> 256 µg/mL	> 256 µg/mL	> 256 µg/mL	256 µg/mL (≈ 649 µM)
O=C(O)c1ccc(N2CCOCC2)c(NCc2ccc(Sc3ccc(Cl)c(Cl)c3)c([N+](=O)[O-])c2)c1	> 256 µg/mL	> 256 µg/mL	> 256 µg/mL	> 256 µg/mL	> 256 µg/mL	16 µg/mL (≈ 29.9 µM)
